Measured values as given in ChEMBL document CHEMBL1201862, “PubChem BioAssay data set” (2004).
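Cells were grown in 96-well plates and exposed to each compound for 48 hours at five concentrations; endpoints were interpolated linearly between bracketing concentrations, or set to the highest concentration if not reached. Here, GI50 denotes the concentration required for 50% inhibition of growth.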 Activity calls are given as the source filed them. Rule as the data show it: active = GI50 up to about 1.1 µM and inactive = higher.

Columns and labels:
Test in all cases: growth of human tumour cells (NCI), 48 h
UACC-257 = system: UACC-257
MOLT-4 = system: MOLT-4
EKVX = system: EKVX
T47D = system: T47D
ACHN = system: ACHN
OVCAR-3 = system: OVCAR-3
OVCAR-5 = system: OVCAR-5
CCRF-CEM = system: CCRF-CEM
NCI-H460 = system: NCI-H460
NCI-H226 = system: NCI-H226
UO-31 = system: UO-31
SK-MEL-2 = system: SK-MEL-2
DU-145 = system: DU-145
A549 = system: A549
SF-268 = system: SF-268
TK-10 = system: TK-10
Hs-578T = system: Hs-578T
HOP-62 = system: HOP-62
RPMI-8226 = system: RPMI-8226
KM12 = system: KM12

SMILES	GI50 (UACC-257)	GI50 (MOLT-4)	GI50 (EKVX)	GI50 (T47D)	GI50 (ACHN)	GI50 (OVCAR-3)	GI50 (OVCAR-5)	GI50 (CCRF-CEM)	GI50 (NCI-H460)	GI50 (NCI-H226)	GI50 (UO-31)	GI50 (SK-MEL-2)	GI50 (DU-145)	GI50 (A549)	GI50 (SF-268)	GI50 (TK-10)	GI50 (Hs-578T)	GI50 (HOP-62)	GI50 (RPMI-8226)	GI50 (KM12)
Nn1c(-c2ccccc2)n[nH]c1=O	> 100 µM (inactive)	> 100 µM (inactive)	> 100 µM (inactive)	> 100 µM (inactive)	> 100 µM (inactive)	> 100 µM (inactive)	> 100 µM (inactive)	> 100 µM (inactive)	> 100 µM (inactive)	> 100 µM (inactive)	> 100 µM (inactive)	> 100 µM (inactive)	> 100 µM (inactive)	> 100 µM (inactive)	> 100 µM (inactive)	> 100 µM (inactive)	58.3 µM (inactive)	> 100 µM (inactive)	> 100 µM (inactive)	> 100 µM (inactive)
O=C(NCCCCCCNC(=O)n1cc(F)c(=O)[nH]c1=O)NCCCOCCOCCOCCOCCOCCOCCOCCOCCOCCOCCOCCOCCOCCOCCOCCOCCOCCOCCOCCOCCOCCCNC(=O)C(O)C(O)C(OC1OC(CO)C(O)C(O)C1O)C(O)CO (stereo not given)	59.4 µM (inactive)	37 µM (inactive)	> 88.9 µM (inactive)	85.7 µM (inactive)	10.3 µM (inactive)	37.1 µM (inactive)	> 54 µM (inactive)	> 83.8 µM (inactive)	3.58 µM (inactive)	> 77.3 µM (inactive)	13.4 µM (inactive)	> 100 µM (inactive)	27.7 µM (inactive)	7.33 µM (inactive)	75.5 µM (inactive)	> 100 µM (inactive)	69.2 µM (inactive)	20.6 µM (inactive)	17 µM (inactive)	19.6 µM (inactive)
[N-]=[N+]=Nc1c([N+](=O)[O-])c(=O)n2c3c(cccc13)CCC2	8.15 µM (inactive)	2.48 µM (inactive)	19.4 µM (inactive)	5.42 µM (inactive)	17.8 µM (inactive)	17 µM (inactive)	16.4 µM (inactive)	1.97 µM (inactive)	17.8 µM (inactive)	24.2 µM (inactive)	15.2 µM (inactive)	16.6 µM (inactive)	16.9 µM (inactive)	35.9 µM (inactive)	13.6 µM (inactive)	20 µM (inactive)	26.2 µM (inactive)	> 100 µM (inactive)	3.15 µM (inactive)	17 µM (inactive)
CC(C)/C(Cl)=N\OC(=O)NNc1ccccc1	1.3 µM (inactive)	< 0.01 µM (active)	15.3 µM (inactive)	2.35 µM (inactive)	14.1 µM (inactive)	> 35.8 µM (inactive)	> 100 µM (inactive)	< 0.0333 µM (active)	< 0.01 µM (active)	27 µM (inactive)	0.0178 µM (active)	> 32.1 µM (inactive)	> 100 µM (inactive)	0.0721 µM (active)	> 91.4 µM (inactive)	68.7 µM (inactive)	54.6 µM (inactive)	> 43.1 µM (inactive)	< 0.0247 µM (active)	1.55 µM (inactive)
O=S1(=O)CCN(Cc2ccccc2)/C1=N\S(=O)(=O)c1ccc(Cl)cc1	20.7 µM (inactive)	20.5 µM (inactive)	15.1 µM (inactive)	22.2 µM (inactive)	18.8 µM (inactive)	19.4 µM (inactive)	18.1 µM (inactive)	24.9 µM (inactive)	22.3 µM (inactive)	17.8 µM (inactive)	17.5 µM (inactive)	23.4 µM (inactive)	20.5 µM (inactive)	65.3 µM (inactive)	16.6 µM (inactive)	17 µM (inactive)	26.2 µM (inactive)	65.2 µM (inactive)	25.8 µM (inactive)	27.4 µM (inactive)
N=C(N)NS(=O)(=O)c1ccc(NC(=O)c2cccc3c(NNc4ccc(C(=O)O)cc4)c4ccccc4nc23)cc1	> 100 µM (inactive)	44.9 µM (inactive)	26.6 µM (inactive)	39.6 µM (inactive)	> 100 µM (inactive)	46.7 µM (inactive)	> 100 µM (inactive)	25.8 µM (inactive)	67.3 µM (inactive)	64 µM (inactive)	32.7 µM (inactive)	22.9 µM (inactive)	48.5 µM (inactive)	> 100 µM (inactive)	58.7 µM (inactive)	> 100 µM (inactive)	> 100 µM (inactive)	> 100 µM (inactive)	> 100 µM (inactive)	45.2 µM (inactive)
CSc1c(C(=O)Nc2ccc(Cl)cc2)c(N)nn1-c1ccccc1	> 100 µM (inactive)	> 100 µM (inactive)	> 100 µM (inactive)	> 100 µM (inactive)	78.7 µM (inactive)	> 100 µM (inactive)	> 100 µM (inactive)	> 100 µM (inactive)	> 59.2 µM (inactive)	> 100 µM (inactive)	> 44.8 µM (inactive)	> 100 µM (inactive)	> 100 µM (inactive)	> 24.5 µM (inactive)	> 100 µM (inactive)	> 38.9 µM (inactive)	> 28.2 µM (inactive)	80 µM (inactive)	> 100 µM (inactive)	> 100 µM (inactive)
CC1CN(CCO)CC(C)O1 (stereo not given)	> 100 µM (inactive)	> 100 µM (inactive)	> 100 µM (inactive)	> 100 µM (inactive)	> 100 µM (inactive)	> 100 µM (inactive)	> 100 µM (inactive)	> 100 µM (inactive)	> 100 µM (inactive)	> 100 µM (inactive)	> 100 µM (inactive)	> 100 µM (inactive)	> 100 µM (inactive)	> 100 µM (inactive)	> 100 µM (inactive)	> 100 µM (inactive)	> 100 µM (inactive)	> 100 µM (inactive)	> 100 µM (inactive)	> 100 µM (inactive)
CCOC(=O)C(C#N)C1=CC(=O)C(=O)c2ccc(OC)cc21 (stereo not given)	17 µM (inactive)	48.5 µM (inactive)	22.7 µM (inactive)	14.9 µM (inactive)	15.3 µM (inactive)	17.9 µM (inactive)	20.1 µM (inactive)	43.3 µM (inactive)	24.2 µM (inactive)	21.6 µM (inactive)	17.5 µM (inactive)	12.8 µM (inactive)	19.5 µM (inactive)	19.7 µM (inactive)	30.2 µM (inactive)	38.5 µM (inactive)	18.1 µM (inactive)	22 µM (inactive)	> 100 µM (inactive)	20 µM (inactive)
O=C(O)CN1CCN(CC(=O)O)CCN(CC(=O)O)CCN(CC(=O)O)CC1 [TETRAXETAN]	> 100 µM (inactive)	> 100 µM (inactive)	> 100 µM (inactive)	> 100 µM (inactive)	> 100 µM (inactive)	> 100 µM (inactive)	> 100 µM (inactive)	> 100 µM (inactive)	> 100 µM (inactive)	> 100 µM (inactive)	> 100 µM (inactive)	> 100 µM (inactive)	> 100 µM (inactive)	> 100 µM (inactive)	> 100 µM (inactive)	> 100 µM (inactive)	> 100 µM (inactive)	> 100 µM (inactive)	> 100 µM (inactive)	> 100 µM (inactive)
COc1ccc(/C=C/C(=O)/C=C/c2ccc(OC)cc2)cc1	20 µM (inactive)	51.1 µM (inactive)	41.7 µM (inactive)	55.3 µM (inactive)	89.1 µM (inactive)	32.1 µM (inactive)	> 100 µM (inactive)	31.8 µM (inactive)	> 100 µM (inactive)	22.4 µM (inactive)	> 100 µM (inactive)	33.3 µM (inactive)	> 100 µM (inactive)	46 µM (inactive)	54.6 µM (inactive)	73.3 µM (inactive)	47.2 µM (inactive)	> 100 µM (inactive)	5.01 µM (inactive)	24 µM (inactive)
COC(=O)c1oc([N+](=O)[O-])c(Cl)c1Cl	7.89 µM (inactive)	2.19 µM (inactive)	19.8 µM (inactive)	4.76 µM (inactive)	8.91 µM (inactive)	6.1 µM (inactive)	8.13 µM (inactive)	2.21 µM (inactive)	17.2 µM (inactive)	21.3 µM (inactive)	8.07 µM (inactive)	12.2 µM (inactive)	17.6 µM (inactive)	8.51 µM (inactive)	8.28 µM (inactive)	7.36 µM (inactive)	11.4 µM (inactive)	8.71 µM (inactive)	3.96 µM (inactive)	5.83 µM (inactive)
O=C1CCSCCC(=O)Nc2ccccc2N1	> 100 µM (inactive)	> 100 µM (inactive)	> 100 µM (inactive)	> 100 µM (inactive)	> 100 µM (inactive)	> 100 µM (inactive)	> 100 µM (inactive)	> 100 µM (inactive)	> 100 µM (inactive)	> 100 µM (inactive)	> 100 µM (inactive)	> 100 µM (inactive)	> 100 µM (inactive)	> 100 µM (inactive)	> 100 µM (inactive)	> 100 µM (inactive)	88.3 µM (inactive)	> 100 µM (inactive)	> 100 µM (inactive)	> 100 µM (inactive)
O=C1c2sccc2C(=O)c2c(CO)csc21	2.15 µM (inactive)	4.89 µM (inactive)	6.97 µM (inactive)	4.71 µM (inactive)	3.52 µM (inactive)	1.9 µM (inactive)	21.2 µM (inactive)	3.37 µM (inactive)	2.25 µM (inactive)	4.82 µM (inactive)	7.76 µM (inactive)	2.85 µM (inactive)	2.66 µM (inactive)	0.695 µM (active)	6.5 µM (inactive)	7.05 µM (inactive)	4.17 µM (inactive)	4.71 µM (inactive)	5.26 µM (inactive)	5.02 µM (inactive)
